In patent US11077169B2, “Soy-derived bioactive peptides for use in compositions and methods for wound healing, tissue engineering, and regenerative medicine” (Temple University-Of The Commonwealth System of Higher …, priority 2015, dated 2021):

System: HaCaT epithelial cells
Assay: wound closure in HaCaT cells with ethanol extracts and estrogen receptor antagonist
Assay type: cell-based, human

`C[C@]12CC[C@@H]3c4ccc(O)cc4C[C@@H](CCCCCCCCC[S+]([O-])CCCC(F)(F)C(F)(F)F)[C@H]3[C@@H]1CC[C@@H]2O` (some centres unmarked) [Fluvestrant] was tested, and the “effect on WSsoy-induced wound closure” value was “did not affect” and the “inhibition of SPI-induced wound closure” value (10 μM antagonist) was “significantly inhibited”.
